Measured values published in patent publication EP4813464A2, “PEPTIDE FOR PREVENTING AND TREATING FIBROSIS” (priority 2021, dated 2022).

Experiments:
[1] = test system: animal model in which lung disease was induced with bleomycin; experiment: Bleomycin-induced lung disease model, lung histology; format: in vivo, C57BL/6J mice; conditions: day 22; peptides 30 mg/kg subcutaneously three times a week, nintedanib 100 mg/kg orally daily; peptides compared to NT group and nintedanib group; FIG. 8c
Method: C57BL/6J mice (male, 7 weeks old) were purchased from Charles River. Mice were anesthetized by intraperitoneal administration of a mixture of Imalgene (ketamine, 100 mg/kg)/Rompun (xylazine, 20 mg/kg), and a total of 50 µl of bleomycin sulfate (1.45 mg/kg, MBcell, CA, USA) was injected intratracheally once, and saline was injected intratracheally in the normal group (day 0). On day 7, mice were divided into groups, each consisting of eight. PBS (NT), SEQ ID NO: 1 (30 mg/kg), and SEQ ID NO: 2 (30 mg/kg) were administered subcutaneously three times a week, and nintedanib (Fluorochem Ref = 050741, 100 mg/kg) was administered orally daily. Each of the peptides of SEQ ID NO: 1 and SEQ ID NO: 2 was administered after dissolution in water for injection, and nintedanib was administered after mixing with water containing 0.5% hydroxyethylcellulose (Sigma; lot BCBV5033) and 0.01% Tween 80 (Sigma; lot BCBR6211V). While administering the drug for 21 days, body weight was measured every 2 days, and whether there were other clinical symptoms were checked.
After mice were sacrificed with isoflurane on day 22, lung tissue was excised therefrom and histological analysis was performed. […]
In order to quantify the fibrotic change, the area of the red (fibrotic portion) was quantified in the sample stained with Sirius Red.

[2] = format: in vivo, C57BL/6J mice; conditions: bleomycin mice, treatment from day 7, day 0 to day 22; peptides 30 mg/kg subcutaneously three times a week, nintedanib 100 mg/kg orally daily; FIG. 8b
Excerpt: Based on results of measuring the change in body weight from day 0 to day 22, the body weight decreased until day 7 after administration of bleomycin, but increased after treatment with the peptide according to the present invention and nintedanib (FIG. 8b), and weight loss due to toxicity of the peptide according to the present invention and nintedanib was not observed.

For COC(=O)c1ccc2c(c1)NC(=O)/C2=C(\Nc1ccc(N(C)C(=O)CN2CCN(C)CC2)cc1)c1ccccc1 [nintedanib], the “fibrous deposition in the lungs (Sirius Red and hematoxylin/phloxine staining, microscopy)” value [1] was “some therapeutic effect, but a lot of deposited fibrous tissue was still observed” and the “change in body weight” value [2] was “increased”.
